From patent US20230301998A1, “METHODS AND COMPOSITIONS FOR INDUCTION OF ANTITUMOR IMMUNITY” (Sanford Burnham Prebys Medical Discovery Institute, priority 2020, published 2023)

Assays:
YUMM1.7 cells = experiment: YUMM1.7 syngeneic melanoma tumor model in C57BL/6 mice (tumor volume, response); type: in vivo, mouse; conditions: for Non-responder / Responder: number of mice
Description: Animal experiments. All animal experiments were conducted with approval of the Institutional Animal Care and Use Committee of Sanford Burnham Prebys Medical Discovery Institute (AUF#18-044). The murine melanoma lines B16F10, YUMM1.7 , and YUMMER1.7 were injected subcutaneously (2.0×10^5 cells of B16F10 or YUMM1.7; 4.0 ×10^5 cells of YUMMER1.7) into the lower right flank of 6-8-week-old male C57BL/6 (B16F10, YUMM1.7, YUMMER1.7) or Nod-Scid-Gamma (NSG) (B16F10, YUMMER1.7) mice. To induce transduced inducible shPRMT5, doxycycline (10 mg/ml, Fisher Bioreagents) was prepared in methylcellulose solution (0.5% hydroxylmethylcellulose, 0.2% Tween80) and administered to mice (0.2 ml, oral gavage, QD)Tumor sizes were monitored using calipers. At indicated time points, tumors were collected, 21 weighed and assessed for immune phenotypes using flow cytometry or immunofluorescence. To assess efficacy of immune checkpoint antibodies, mice were grafted with B16F10 or YUMM1.7 (2.0×10^5 cells, s.c.) cells and treated with 200 μg control IgG [rat IgG2a; BE0089 (BioXcell)], anti-CD152 (CTLA-4) [9H10 (BE0131, BioXcell)] or anti-CD279 (PD-1) [RMP1-14 (BE0146, BioXcell)]. Antibodies were injected (i.p.) 3 - 5 times (every 3 days starting from the indicated date). […] To deplete NK or CD8+ cells, mice were treated with anti-NK1.1 antibody [PK136 (BE0036, BioXcell)] or anti-CD8 antibody [2.43(BE0061, BioXcell), respectively; controls were treated with 200 μtg IgG [rat IgG2b (BE0090, BioXcell)]. Antibodies were injected (i.p.) every 3 days starting one day prior to tumor cell inoculation. The efficiency of depletion was assessed using flow cytometry of blood samples collected at day 8 after tumor inoculation. To assess percent survival of animals, mice bearing tumors exceeding 2,000 mm^3 were defined as “dead”. Gene set enrichment (GSEA) and Ingenuity Pathway (IPA) analyses
(§1) Statistical analyses were performed using Prism software (version 7.00, GraphPad). For comparison of means of two groups with normal (or approximately normal) distributions, an un-paired t-test was applied. To compare means between >2 groups, one-way analysis of variance (ANOVA) was used with multiple comparison corrections (Dunnett's or Tukey's test). For animal experiments, two-way ANOVA (time and treatment) was used with Tukey's multiple comparison test. For Kaplan-Meier plots to compare overall survival, a log-rank test was used to determine significance of differences between groups. To evaluate response to therapy in a mouse model, Fisher's exact test (version 7.00, GraphPad) was used. For that analysis, a tumor with volume <50% of control tumors was defined as “responding to treatment”. For all analyses, a difference with p<0.05 was considered significant, unless specified.

B16F10 cells = experiment: B16F10 syngeneic melanoma tumor model in C57BL/6 mice (tumor volume, response, survival, immune phenotyping); type: in vivo, mouse; conditions: for Non-responder / Responder: number of mice
Description: Animal experiments. All animal experiments were conducted with approval of the Institutional Animal Care and Use Committee of Sanford Burnham Prebys Medical Discovery Institute (AUF#18-044). The murine melanoma lines B16F10, YUMM1.7 , and YUMMER1.7 were injected subcutaneously (2.0×10^5 cells of B16F10 or YUMM1.7; 4.0 ×10^5 cells of YUMMER1.7) into the lower right flank of 6-8-week-old male C57BL/6 (B16F10, YUMM1.7, YUMMER1.7) or Nod-Scid-Gamma (NSG) (B16F10, YUMMER1.7) mice. To induce transduced inducible shPRMT5, doxycycline (10 mg/ml, Fisher Bioreagents) was prepared in methylcellulose solution (0.5% hydroxylmethylcellulose, 0.2% Tween80) and administered to mice (0.2 ml, oral gavage, QD)Tumor sizes were monitored using calipers. At indicated time points, tumors were collected, 21 weighed and assessed for immune phenotypes using flow cytometry or immunofluorescence. To assess efficacy of immune checkpoint antibodies, mice were grafted with B16F10 or YUMM1.7 (2.0×10^5 cells, s.c.) cells and treated with 200 μg control IgG [rat IgG2a; BE0089 (BioXcell)], anti-CD152 (CTLA-4) [9H10 (BE0131, BioXcell)] or anti-CD279 (PD-1) [RMP1-14 (BE0146, BioXcell)]. Antibodies were injected (i.p.) 3 - 5 times (every 3 days starting from the indicated date). […] Antibodies were injected (i.p.) every 3 days starting one day prior to tumor cell inoculation. The efficiency of depletion was assessed using flow cytometry of blood samples collected at day 8 after tumor inoculation. To assess percent survival of animals, mice bearing tumors exceeding 2,000 mm^3 were defined as “dead”. Gene set enrichment (GSEA) and Ingenuity Pathway (IPA) analyses
as §1
For immune phenotyping, B16F10 tumors were collected and processed by chopping and mincing using a tube-secured cell strainer (70 p.m poresize, Falcon) to prepare single cells for flow cytometry. YUMMER1.7 cells were processed by chopping, following incubation in Collargenase D solution [0.1% (w/v) Collagenase D, 0.5% (w/v) BSA, 100 μg/ml DNase in PBS] for 1 hr at 30° C. and mincing using cells strainer. […] All antibodies were from Biolegend. Stained cells were fixed in 1% formaldehyde (Sigma) in PBS (pH7.4) for 15 min at 4° C. and analyzed with BD LSRFortessa (BD Biosciences) flow cytometry. For intranuclear staining of FoxP3, cells were fixed and permearbilized using a FoxP3/Transcription factor Fixation/Permearbilization kit (ThermoFisher Scientific). […] Cells were stained with antibody cocktail for surface markers [CD45.2, CD4, and CD8] and followed by staining with intraceullar cytokine antibodies [IFN gamma (APC), TNF alpha(FITC) and IL-2(PE)]. The number of specific immune cells per gram of tumor was calculated based on the percentage of specified immune cells identified in FACS (relative to the total number of tumors cells) per tumor weight. […] Cells were fixed and analyzed as above. To assess effects efficiency of in vivo depletion of CD8 T or NK cells, immune cells were isolated from mouse blood and RBCs were lysed using hypotonic buffer [15 mM NH4C1, 10 mM KHCO3, 0.1mM Na2EDTA] for 1 hr at 4° C.

RIG-I/TLR3 = experiment: dsRNA poly(I:C)-induced type I interferon response in B16 cells (qPCR); type: cell-based, mouse; conditions: B16 melanoma cells, poly(I:C) 250 ng/ml 6 hr (FIG. 12J)
[1] = tested on: Nlrc5 and Nlrc5 target genes; experiment: Expression of antigen presentation genes / surface MHCI in B16 cells; type: cell-based, mouse; conditions: B16 cells, MTA 100 μM for 24 hr, qPCR (FIG. 14E)
PRMT5 [2] = target: T1, PRMT5 (Homo sapiens, UniProt O14744); experiment: IP/immunoblot of IFI16 Arg methylation and SHARPIN interaction in human melanoma cells after PRMT5 inhibition; type: cell-based
T1 construct: endogenous in cells; host or cells: A375 and WM115 human melanoma cells
Description: Immunoblotting was performed using standard protocols. Melanoma cells were lysed by incubation in RIPA buffer [50 mM Tris-HC1, pH7.4, 1% (v/v) NP40, 0.1% (w/v) sodium deoxycholate, 0.1% (w/v) sodium dodecyl sulfate, 150 mM NaCl, 1mM EDTA, and protease and phosphatase inhibitor cocktails (Thermo Fisher Scientific)] and freeze-thawed 3 times. For immunoprecipitation HEK293T cells were lysed in 1% Triton X-100 buffer [50 mM Tris-HC1, pH7.4, 1% (v/v) Triton X-100, 150 mM NaCl, 1 mM EDTA, and protease and phosphatase inhibitor cocktails (Thermo Fisher Scientific)] and freeze-thawed 3 times. Lysates were then incubated overnight with indicated antibodies and then for 4 hr with protein A/G agarose beads (Santa Cruz Biotechnology) under gentle mixing. Proteins were eluted by addition of lysis buffer and boiled in Laemmli buffer before separation on SDS-PAGE and transfer to a PVDF membrane. Membranes were incubated for 1 h at room temperature with blocking solution [TBS (Tris-buffered Saline); 10 mM Tris-HC1, pH8.0, 150 mM NaCl)] containing 0.1% Tween 20 and 5% nonfat milk followed by incubation overnight at 4° C. with appropriate primary antibodies. Membranes were washed with TBS and incubated 1 h at room temperature with secondary antibody [Alexa 680-conjugated goat anti-rabbit, goat anti-mouse, donkey anti-goat (Life Technologies) or IRDye 800-conjugated goat anti-mouse (Rockland Immunochemicals)], or HRP-conjugated anti-mouse or anti-rabbit IgG antibodies. TidyBlot anti-rabbit secondary antibody (Bio-Rad) was used to detect immunoprecipitated proteins (SHARPIN). Blots were treated with HRP-conjugated antibodies and SuperSignal West Pico or Femto chemiluminescent substrate (ThermoFisher scientific). Protein bands were visualized and quantified using an Odyssey Infrared Imaging System (LiCor Biosciences) or ChemiDoc Imaging System (Bio-Rad). […] STING polymer was analyzed using BlueNative(BN) PAGE (3). […] STING dimers and polymers were detected using a STING antibody (D2P2F, Cell Signaling),Immunofluorescence

cGAS/STING pathway = experiment: dsDNA (V70mer)-stimulated cGAS/STING signalling in B16 cells (qPCR, western blot); type: cell-based, mouse
PRMT5 [3] = target: T2, PRMT5 (Mus musculus, UniProt Q8CIG8); experiment: IP/immunoblot of IFI204 Arg methylation and SHARPIN interaction in B16 cells after PRMT5 inhibition; type: cell-based
T2 construct: endogenous in cells; host or cells: B16F10 murine melanoma cells (ATCC)
Description: Immunoblotting was performed using standard protocols. Melanoma cells were lysed by incubation in RIPA buffer [50 mM Tris-HC1, pH7.4, 1% (v/v) NP40, 0.1% (w/v) sodium deoxycholate, 0.1% (w/v) sodium dodecyl sulfate, 150 mM NaCl, 1mM EDTA, and protease and phosphatase inhibitor cocktails (Thermo Fisher Scientific)] and freeze-thawed 3 times. For immunoprecipitation HEK293T cells were lysed in 1% Triton X-100 buffer [50 mM Tris-HC1, pH7.4, 1% (v/v) Triton X-100, 150 mM NaCl, 1 mM EDTA, and protease and phosphatase inhibitor cocktails (Thermo Fisher Scientific)] and freeze-thawed 3 times. Lysates were then incubated overnight with indicated antibodies and then for 4 hr with protein A/G agarose beads (Santa Cruz Biotechnology) under gentle mixing. Proteins were eluted by addition of lysis buffer and boiled in Laemmli buffer before separation on SDS-PAGE and transfer to a PVDF membrane. […] Protein bands were visualized and quantified using an Odyssey Infrared Imaging System (LiCor Biosciences) or ChemiDoc Imaging System (Bio-Rad). […] STING polymer was analyzed using BlueNative(BN) PAGE (3). […] STING dimers and polymers were detected using a STING antibody (D2P2F, Cell Signaling),Immunofluorescence

[4] = FIG. 17F: YUMM1.7 in C57BL/6, PRMT5i from day 7, anti-PD-1 days 8, 11, 14, 17
[5] = FIG. 17G: YUMM1.7 in C57BL/6, anti-CD8 200 μg/mouse every three days, PRMT5i from day 8, anti-PD-1 days 9, 12, 15, 18
[6] = FIG. 17E: B16 in C57BL/6, PRMT5i GSK3326595 40 mg/kg from day 10, anti-PD-1 200 μg/mouse days 11, 14, 17, responder = tumor volume <50% of control
[7] = FIG. 18C: B16F10 in syngeneic mice, PRMT5i GSK3326595 40 mg/kg QD from day 6, anti-PD1 days 8, 11, 14, 17

T1 sequence (O14744 whole entry): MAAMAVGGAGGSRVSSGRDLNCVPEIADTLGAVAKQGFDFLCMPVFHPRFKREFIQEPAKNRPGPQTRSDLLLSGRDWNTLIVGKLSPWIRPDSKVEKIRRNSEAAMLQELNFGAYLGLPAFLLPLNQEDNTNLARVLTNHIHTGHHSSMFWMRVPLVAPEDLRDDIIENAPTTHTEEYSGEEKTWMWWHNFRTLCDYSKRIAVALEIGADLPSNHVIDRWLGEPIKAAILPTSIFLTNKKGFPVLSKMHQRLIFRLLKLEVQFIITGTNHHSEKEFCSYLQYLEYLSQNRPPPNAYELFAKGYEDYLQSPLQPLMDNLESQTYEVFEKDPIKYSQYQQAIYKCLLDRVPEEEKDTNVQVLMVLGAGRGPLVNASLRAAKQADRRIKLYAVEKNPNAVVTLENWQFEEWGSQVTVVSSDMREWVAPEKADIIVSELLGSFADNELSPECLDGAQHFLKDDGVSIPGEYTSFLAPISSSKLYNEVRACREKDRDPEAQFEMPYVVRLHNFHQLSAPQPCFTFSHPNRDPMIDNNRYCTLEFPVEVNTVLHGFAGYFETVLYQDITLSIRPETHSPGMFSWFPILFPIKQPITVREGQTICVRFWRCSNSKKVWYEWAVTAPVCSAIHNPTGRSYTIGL
T1 sequence (Q9BQA1 whole entry partner): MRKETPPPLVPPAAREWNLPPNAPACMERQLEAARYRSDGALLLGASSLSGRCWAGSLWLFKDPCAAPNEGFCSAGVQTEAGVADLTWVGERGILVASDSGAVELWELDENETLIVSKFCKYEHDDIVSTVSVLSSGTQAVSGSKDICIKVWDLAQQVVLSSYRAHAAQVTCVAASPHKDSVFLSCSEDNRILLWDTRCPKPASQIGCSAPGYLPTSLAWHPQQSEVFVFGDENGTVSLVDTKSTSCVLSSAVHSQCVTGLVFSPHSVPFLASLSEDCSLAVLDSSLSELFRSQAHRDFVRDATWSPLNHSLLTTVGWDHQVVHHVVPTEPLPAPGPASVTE
T2 sequence (Q8CIG8 whole entry): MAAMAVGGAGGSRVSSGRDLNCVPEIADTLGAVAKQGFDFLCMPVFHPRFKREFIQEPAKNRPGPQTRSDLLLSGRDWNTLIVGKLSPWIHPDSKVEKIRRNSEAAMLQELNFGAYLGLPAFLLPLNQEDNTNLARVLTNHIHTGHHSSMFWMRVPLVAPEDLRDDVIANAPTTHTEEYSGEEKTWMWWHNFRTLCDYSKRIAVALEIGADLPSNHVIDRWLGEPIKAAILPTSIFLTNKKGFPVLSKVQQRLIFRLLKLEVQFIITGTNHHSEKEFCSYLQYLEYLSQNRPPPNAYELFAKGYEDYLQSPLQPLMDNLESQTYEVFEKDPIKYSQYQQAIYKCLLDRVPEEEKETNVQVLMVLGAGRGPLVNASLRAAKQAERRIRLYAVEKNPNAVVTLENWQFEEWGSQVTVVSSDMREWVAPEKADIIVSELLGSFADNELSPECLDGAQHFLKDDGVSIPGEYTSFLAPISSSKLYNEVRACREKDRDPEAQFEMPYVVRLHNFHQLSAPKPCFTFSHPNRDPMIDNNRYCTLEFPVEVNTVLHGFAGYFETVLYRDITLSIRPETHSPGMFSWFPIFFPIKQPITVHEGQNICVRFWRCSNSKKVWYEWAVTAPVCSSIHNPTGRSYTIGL
T2 sequence (Q99J09 whole entry partner): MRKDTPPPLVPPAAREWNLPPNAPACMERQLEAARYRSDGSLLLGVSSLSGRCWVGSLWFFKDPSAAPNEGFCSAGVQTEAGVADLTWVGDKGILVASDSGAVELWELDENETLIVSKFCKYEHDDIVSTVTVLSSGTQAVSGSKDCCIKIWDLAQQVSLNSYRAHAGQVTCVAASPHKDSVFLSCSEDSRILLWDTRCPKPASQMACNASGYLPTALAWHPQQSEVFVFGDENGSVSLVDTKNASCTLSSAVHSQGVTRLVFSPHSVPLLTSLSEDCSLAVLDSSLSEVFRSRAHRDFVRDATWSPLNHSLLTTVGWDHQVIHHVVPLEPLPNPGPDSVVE

CC(=O)N1CCC(Nc2cc(C(=O)NC[C@H](O)CN3CCc4ccccc4C3)ncn2)CC1 [GSK3326595]
Response rate (%) (YUMM1.7 cells; [4]): 28.6% | Non-responder (YUMM1.7 cells; [4]): 5 | Responder (YUMM1.7 cells; [4]): 2 | Non-responder (YUMM1.7 cells; [5]): 6 | Responder (YUMM1.7 cells; [5]): 1 | Response rate (%) (YUMM1.7 cells; FIG. 17G: YUMM1.7 in C57BL/6, anti-CD8 depletion, PRMT5i from day 8, anti-PD-1 days 9, 12, 15, 18): 14.3% | immune cell infiltration or activation in tumors (B16F10 cells; B16F10, PRMT5i monotherapy 40 mg/kg QD from day 8, tumors day 15, flow cytometry (FIGS. 18E-G)): notable changes were not observed | response rate across experiments (B16F10 cells; B16 and YUMM1.7 models, FIGS. 17E-F, 18C-D, table 5): 14.3˜66.7% | Non-responder (B16F10 cells; [6]): 6 | Responder (B16F10 cells; [6]): 1 | Response rate (%) (B16F10 cells; FIG. 17E: B16 in C57BL/6, PRMT5i from day 10, anti-PD-1 days 11, 14, 17, percent of responders in group): 14.3% | Response rate (%) (B16F10 cells; FIG. 18C: B16F10, PRMT5i 40 mg/kg QD from day 6, anti-PD1 days 8, 11, 14, 17): 66.7% | Non-responder (B16F10 cells; [7]): 2 | Responder (B16F10 cells; [7]): 4

poly(I:C)
Ifnb1 and chemokine expression (RIG-I/TLR3): induced

CSC[C@H]1O[C@@H](n2cnc3c(N)ncnc32)[C@H](O)[C@@H]1O [MTA]
basal Nlrc5 expression and that of Nlrc5 target genes (Tap1, B2m, Psmb9) [1]: increased

O=C(NC[C@H](O)CN1CCc2ccccc2C1)c1cc(NC2COC2)ncn1 [EPZ015666]
decrease in IFI16 methylation (PRMT5 [2]; A375 melanoma cells, EPZ015666 10 μM (FIG. 8E)): 50% | degree of interaction between IFI16 and SHARPIN (PRMT5 [2]; A375 melanoma cells, EPZ015666 10 μM (FIG. 10C)): enhanced | decrease in IFI16 methylation (PRMT5 [2]; WM115 cells (MTAP-deleted), EPZ015666 10 μM (FIG. 10D)): 15% | expression of Ifnb1, Cc15 and Cxcl10 (cGAS/STING pathway; B16 cells treated 24 hr, then V70mer dsDNA 500 ng/ml 6 h, qPCR (FIG. 11B)): increased | TBK1-IRF3 signaling (cGAS/STING pathway; B16 melanoma, V70mer 1.5 μg/ml, western blot (FIG. 11G)): activated TBK1-IRF3 signaling | IFI204 interaction with SHARPIN (PRMT5 [3]; EPZ015666 10 μM (FIG. 8D)): stronger interaction with SHARPIN | reduced IFI204 methylation (PRMT5 [3]; EPZ015666 10 μM (FIG. 8F)): 57%
